The values below come from ChEMBL document CHEMBL2203143, “Synthesis and antiproliferative activities of ottelione a analogues” (ACS Med Chem Lett, 2012).

Calls of active or inactive are those of the source. No cut-off for these calls is given here. A value given as a limit tells only on which side of the number the result lay.

The first assay relates to MCF7. In words: Ratio of ottelione A IC50 to compound IC50 for human MCF7 cells after 72 hrs by CellTiter96 assay. It counts as functional.
Conditions: not given
On to `C=C1C=CC(=O)[C@@H]2[C@H](Cc3ccc(OC)c(F)c3)CC[C@H]12` (racemic), for which the “Ratio IC50” value was found to be 6.

Another assay has as its system COLO 205. Briefly: Ratio of ottelione A IC50 to compound IC50 for human COLO205 cells after 72 hrs by CellTiter96 assay. It counts as functional.
Conditions: not given
Take `C=C1C=CC(=O)[C@@H]2[C@H](Cc3ccc(OC)c(F)c3)CC[C@H]12` (racemic): the “Ratio IC50” value is listed as 6.

The subject of the next assay is KB. In words: Antiproliferative activity against human KB cells assessed as cell viability after 72 hrs by CellTiter96 assay. The assay is classed as functional, cell-based.
Conditions: not given
The IC50 is the concentration at which inhibition is half-maximal. On to `C=C1C=CC(=O)[C@@H]2[C@H](Cc3ccc(OCOC)cc3)CC[C@H]12` (racemic), for which the IC50 is 208 nM.

In the case of `C=C1C=CC(=O)[C@@H]2[C@H](Cc3cc(OC)c(OC)c(OC)c3)CC[C@H]12` (racemic), the half-maximal inhibitory concentration (IC50) was more than 1000 nM.

As to `C=C1C=CC(=O)[C@@H]2[C@H](Cc3ccc(OCOC)c(F)c3)CC[C@H]12` (racemic), the IC50 was found to be 76.6 nM.

In the case of `C=C1C=CC(=O)[C@@H]2[C@H](Cc3ccc(O)c(F)c3)CC[C@H]12` (racemic), the IC50 is 156 nM.

On to `C=C1C=CC(=O)[C@@H]2[C@H](Cc3ccc(F)c(F)c3)CC[C@H]12` (racemic), for which the IC50 stood at 478 nM.

Consider `C=C1C=CC(=O)[C@@H]2[C@H](Cc3ccc(OC)c(F)c3)CC[C@H]12` (racemic), for which the IC50 is 2.77 nM.

A further assay concerns A-375. Briefly: Antiproliferative activity against human A375 cells assessed as cell viability after 72 hrs by CellTiter96 assay. It counts as functional, cell-based. The note with it: A-375, 72 h.
For the compound `C=C1C=CC(=O)[C@@H]2[C@H](Cc3ccc(OCOC)cc3)CC[C@H]12` (racemic), the half-maximal inhibitory concentration (IC50) is 77.4 nM.

In the case of `C=C1C=CC(=O)[C@@H]2[C@H](Cc3cc(OC)c(OC)c(OC)c3)CC[C@H]12` (racemic), the IC50 is more than 1000 nM.

As for `C=C1C=CC(=O)[C@@H]2[C@H](Cc3ccc(OCOC)c(F)c3)CC[C@H]12` (racemic), the 50% inhibitory concentration (IC50) amounted to 40 nM.

As for `C=C1C=CC(=O)[C@@H]2[C@H](Cc3ccc(O)c(F)c3)CC[C@H]12` (racemic), the IC50 was determined as 98.4 nM.

On to `C=C1C=CC(=O)[C@@H]2[C@H](Cc3ccc(F)c(F)c3)CC[C@H]12` (racemic), for which the half-maximal inhibitory concentration (IC50) is 222 nM.

In the case of `C=C1C=CC(=O)[C@@H]2[C@H](Cc3ccc(OC)c(F)c3)CC[C@H]12` (racemic), the IC50 turned out to be 1.68 nM.

Another assay deals with T1, Tubulin (Sus scrofa) (UniProt P02554+P02550). Briefly: Inhibition of pig neuronal tubulin polymerization at 10 uM by fluorescence analysis. The assay is classed as protein assay.
T1 sequence (P02550 whole entry, looked up): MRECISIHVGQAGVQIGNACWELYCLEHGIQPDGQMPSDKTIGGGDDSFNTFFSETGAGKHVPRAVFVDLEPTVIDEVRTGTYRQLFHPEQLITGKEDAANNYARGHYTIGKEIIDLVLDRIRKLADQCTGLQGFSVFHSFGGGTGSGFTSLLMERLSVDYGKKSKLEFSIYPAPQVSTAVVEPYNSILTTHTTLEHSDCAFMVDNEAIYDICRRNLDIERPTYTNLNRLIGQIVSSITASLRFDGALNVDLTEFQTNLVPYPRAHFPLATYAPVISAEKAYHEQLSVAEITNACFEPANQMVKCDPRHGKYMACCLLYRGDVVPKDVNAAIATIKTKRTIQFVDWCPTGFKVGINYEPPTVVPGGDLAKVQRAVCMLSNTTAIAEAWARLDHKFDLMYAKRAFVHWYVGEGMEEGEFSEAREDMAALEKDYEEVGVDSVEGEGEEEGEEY
T1 sequence (P02554 whole entry, looked up): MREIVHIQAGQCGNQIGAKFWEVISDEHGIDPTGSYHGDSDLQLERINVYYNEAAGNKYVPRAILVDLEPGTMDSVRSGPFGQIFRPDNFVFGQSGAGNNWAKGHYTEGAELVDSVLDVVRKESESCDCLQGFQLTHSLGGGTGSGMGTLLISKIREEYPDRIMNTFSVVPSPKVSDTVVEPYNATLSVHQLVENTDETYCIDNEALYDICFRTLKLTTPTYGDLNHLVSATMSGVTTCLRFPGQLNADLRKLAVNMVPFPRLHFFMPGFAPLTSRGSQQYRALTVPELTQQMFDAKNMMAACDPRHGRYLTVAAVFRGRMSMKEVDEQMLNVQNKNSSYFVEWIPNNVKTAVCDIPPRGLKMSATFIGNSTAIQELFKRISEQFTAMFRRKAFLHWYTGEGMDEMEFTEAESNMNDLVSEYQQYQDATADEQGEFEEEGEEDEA
Conditions: not given
Usually inhibition stands for how much of the control response was suppressed. Take `C=C1C=CC(=O)[C@@H]2[C@H](Cc3ccc(OC)c(F)c3)CC[C@H]12` (racemic): the inhibition entry is “Active”.

The subject of the next assay is NCI-H460. In words: Ratio of ottelione A IC50 to compound IC50 for human NCI-H460 cells after 72 hrs by CellTiter96 assay. The assay is classed as functional.
Conditions: not given
Consider `C=C1C=CC(=O)[C@@H]2[C@H](Cc3ccc(OC)c(F)c3)CC[C@H]12` (racemic), for which the “Ratio IC50” value was determined as 6.

The next assay concerns NCI-H460. Briefly: Antiproliferative activity against human NCI-H460 cells assessed as cell viability after 72 hrs by CellTiter96 assay. The note with it: NCI-H460, 72 h. It counts as functional, cell-based.
Consider `C=C1C=CC(=O)[C@@H]2[C@H](Cc3ccc(OCOC)cc3)CC[C@H]12` (racemic), for which the IC50 was found to be 226 nM.

Consider `C=C1C=CC(=O)[C@@H]2[C@H](Cc3cc(OC)c(OC)c(OC)c3)CC[C@H]12` (racemic), for which the IC50 is more than 1000 nM.

Take `C=C1C=CC(=O)[C@@H]2[C@H](Cc3ccc(OCOC)c(F)c3)CC[C@H]12` (racemic): the IC50 was found to be 106 nM.

Turning to `C=C1C=CC(=O)[C@@H]2[C@H](Cc3ccc(O)c(F)c3)CC[C@H]12` (racemic), the half-maximal inhibitory concentration (IC50) worked out at 229 nM.

With `C=C1C=CC(=O)[C@@H]2[C@H](Cc3ccc(F)c(F)c3)CC[C@H]12` (racemic), the half-maximal inhibitory concentration (IC50) stood at 511 nM.

Regarding `C=C1C=CC(=O)[C@@H]2[C@H](Cc3ccc(OC)c(F)c3)CC[C@H]12` (racemic), the IC50 came to 2.62 nM.

The next assay has as its system MCF7. Briefly: Antiproliferative activity against human MCF7 cells assessed as cell viability after 72 hrs by CellTiter96 assay. It counts as functional, cell-based. The conditions noted are these: MCF7, 72 h.
On to `C=C1C=CC(=O)[C@@H]2[C@H](Cc3ccc(OCOC)cc3)CC[C@H]12` (racemic), for which the IC50 was found to be 63.6 nM.

With `C=C1C=CC(=O)[C@@H]2[C@H](Cc3cc(OC)c(OC)c(OC)c3)CC[C@H]12` (racemic), the IC50 is more than 1000 nM.

Turning to `C=C1C=CC(=O)[C@@H]2[C@H](Cc3ccc(OCOC)c(F)c3)CC[C@H]12` (racemic), the IC50 was 77.2 nM.

In the case of `C=C1C=CC(=O)[C@@H]2[C@H](Cc3ccc(O)c(F)c3)CC[C@H]12` (racemic), the IC50 was 147 nM.

With `C=C1C=CC(=O)[C@@H]2[C@H](Cc3ccc(F)c(F)c3)CC[C@H]12` (racemic), the half-inhibitory concentration (IC50) turned out to be 233 nM.

On to `C=C1C=CC(=O)[C@@H]2[C@H](Cc3ccc(OC)c(F)c3)CC[C@H]12` (racemic), for which the IC50 was determined as 0.13 nM.

A further assay relates to HCT-116. Briefly: Antiproliferative activity against human HCT116 cells assessed as cell viability after 72 hrs by CellTiter96 assay. The assay is classed as functional, cell-based. The conditions noted are these: HCT-116, 72 h.
For `C=C1C=CC(=O)[C@@H]2[C@H](Cc3ccc(OCOC)cc3)CC[C@H]12` (racemic), the IC50 amounted to 129 nM.

Regarding `C=C1C=CC(=O)[C@@H]2[C@H](Cc3cc(OC)c(OC)c(OC)c3)CC[C@H]12` (racemic), the half-maximal inhibitory concentration (IC50) is more than 1000 nM.

Regarding `C=C1C=CC(=O)[C@@H]2[C@H](Cc3ccc(OCOC)c(F)c3)CC[C@H]12` (racemic), the concentration for half-maximal inhibition (IC50) was found to be 77.4 nM.

With `C=C1C=CC(=O)[C@@H]2[C@H](Cc3ccc(O)c(F)c3)CC[C@H]12` (racemic), the half-inhibitory concentration (IC50) amounted to 126 nM.

On to `C=C1C=CC(=O)[C@@H]2[C@H](Cc3ccc(F)c(F)c3)CC[C@H]12` (racemic), for which the IC50 was 235 nM.

As to `C=C1C=CC(=O)[C@@H]2[C@H](Cc3ccc(OC)c(F)c3)CC[C@H]12` (racemic), the half-maximal inhibitory concentration (IC50) is 1.11 nM.

In the next assay the target is T1, Tubulin (Sus scrofa). Briefly: Displacement of [3H]colchicine from tubulin in pig brain at 10 uM after 16 hrs by scintillation proximity assay.
Conditions: not given
(In general: Displacement assays read how much labelled ligand stays bound in the presence of the test substance.)
As for `C=C1C=CC(=O)[C@@H]2[C@H](Cc3ccc(OCOC)cc3)CC[C@H]12` (racemic), the inhibition was determined as 69.3%.

In the case of `C=C1C=CC(=O)[C@@H]2[C@H](Cc3cc(OC)c(OC)c(OC)c3)CC[C@H]12` (racemic), the inhibition stood at 8.93%.

On to `C=C1C=CC(=O)[C@@H]2[C@H](Cc3ccc(OCOC)c(F)c3)CC[C@H]12` (racemic), for which the inhibition was determined as 68.9%.

`C=C1C=CC(=O)[C@@H]2[C@H](Cc3ccc(O)c(F)c3)CC[C@H]12` (racemic) returned an inhibition of 37.3%.

Turning to `C=C1C=CC(=O)[C@@H]2[C@H](Cc3ccc(F)c(F)c3)CC[C@H]12` (racemic), the inhibition came out at 61.7%.

For `C=C1C=CC(=O)[C@@H]2[C@H](Cc3ccc(OC)c(F)c3)CC[C@H]12` (racemic), the inhibition was determined as 97.1%.

A further assay has as its system COLO 205. In words: Antiproliferative activity against human COLO205 cells assessed as cell viability after 72 hrs by CellTiter96 assay. The conditions noted are these: COLO 205, 72 h. The assay is classed as functional, cell-based.
Regarding `C=C1C=CC(=O)[C@@H]2[C@H](Cc3ccc(OCOC)cc3)CC[C@H]12` (racemic), the IC50 was 219 nM.

Turning to `C=C1C=CC(=O)[C@@H]2[C@H](Cc3cc(OC)c(OC)c(OC)c3)CC[C@H]12` (racemic), the IC50 was more than 1000 nM.

On to `C=C1C=CC(=O)[C@@H]2[C@H](Cc3ccc(OCOC)c(F)c3)CC[C@H]12` (racemic), for which the concentration for half-maximal inhibition (IC50) amounted to 75.7 nM.

On to `C=C1C=CC(=O)[C@@H]2[C@H](Cc3ccc(O)c(F)c3)CC[C@H]12` (racemic), for which the IC50 amounted to 3000 nM.

Take `C=C1C=CC(=O)[C@@H]2[C@H](Cc3ccc(F)c(F)c3)CC[C@H]12` (racemic): the IC50 is 428 nM.

In the case of `C=C1C=CC(=O)[C@@H]2[C@H](Cc3ccc(OC)c(F)c3)CC[C@H]12` (racemic), the half-maximal inhibitory concentration (IC50) turned out to be 2.45 nM.
